Experimental data reported in ChEMBL document CHEMBL3885881, “DrugMatrix”.

Species on record: Rattus norvegicus
Assay: DrugMatrix - Regimen: Daily Repeat
Format: toxicity, organism-based, Sprague-Dawley
Parameters: regimen Daily Repeat, gender Male, age 6-8 weeks
Details: in vivo, po, route oral GAVAGE, vehicle .5 % CMC; for ABSOLUTE BASOPHIL / ABSOLUTE EOSINOPHIL / ABSOLUTE LYMPHOCYTE / ABSOLUTE MONOCYTE / ABSOLUTE SEGMENTED NEUTROPHIL / BASOPHIL / EOSINOPHIL / ERYTHROCYTE COUNT / HEMATOCRIT / HEMOGLOBIN / LEUKOCYTE COUNT / LYMPHOCYTE / MEAN CORPUSCULAR HEMOGLOBIN / MEAN CORPUSCULAR HEMOGLOBIN CONCENTRATION / MONOCYTE / NEUTROPHIL / NUCLEATED RED BLOOD CELLS / PLATELET COUNT: tissue Blood; for ALANINE AMINOTRANSFERASE / ALBUMIN / ALKALINE PHOSPHATASE / ASPARTATE AMINOTRANSFERASE / BLOOD UREA NITROGEN / CARBON DIOXIDE / CHLORIDE / CHOLESTEROL / CREATINE PHOSPHOKINASE / CREATININE / GLUCOSE / LACTATE DEHYDROGENASE / LIPASE / PHOSPHORUS / POTASSIUM / SODIUM / TOTAL BILIRUBIN / TOTAL PROTEIN / URIC ACID: tissue Plasma
[1] = 3 mg/kg, 120 h, dose level Low, time 5 day
[2] = 2000 mg/kg, 72 h, dose level High, time 3 day
[3] = 2000 mg/kg, 120 h, dose level High, time 5 day

COc1cc2nc(N3CCN(C(=O)c4ccco4)CC3)nc(N)c2cc1OC [PRAZOSIN]
ABSOLUTE BASOPHIL [1]: 0 CELLS/uL
ABSOLUTE EOSINOPHIL [1]: 228.67 CELLS/uL
ABSOLUTE LYMPHOCYTE [1]: 11545.33 CELLS/uL
ABSOLUTE MONOCYTE [1]: 136 CELLS/uL
ABSOLUTE SEGMENTED NEUTROPHIL [1]: 1690 CELLS/uL
BASOPHIL [1]: 0%
EOSINOPHIL [1]: 1.67%
ERYTHROCYTE COUNT [1]: 5.54 x10E6/uL
HEMATOCRIT [1]: 34.63%
HEMOGLOBIN [1]: 13.5 G/DL
LEUKOCYTE COUNT [1]: 13.6 x10E3/uL
LYMPHOCYTE [1]: 85.33%
MEAN CORPUSCULAR HEMOGLOBIN [1]: 24.47 pg
MEAN CORPUSCULAR HEMOGLOBIN CONCENTRATION [1]: 39.03 G/DL
MONOCYTE [1]: 1%
NEUTROPHIL [1]: 12%
NUCLEATED RED BLOOD CELLS [1]: 0 /100WBC
PLATELET COUNT [1]: 1245 x10E3/uL
ALANINE AMINOTRANSFERASE [1]: 57.33 u/L
ALBUMIN [1]: 4.23 G/DL
ALKALINE PHOSPHATASE [1]: 336.33 u/L
ASPARTATE AMINOTRANSFERASE [1]: 106.67 u/L
BLOOD UREA NITROGEN [1]: 16.67 mg/dL
CARBON DIOXIDE [1]: 21.67 mmol/L
CHLORIDE [1]: 104.33 MEQ/L
CHOLESTEROL [1]: 73 mg/dL
CREATINE PHOSPHOKINASE [1]: 877.67 u/L
CREATININE [1]: 0.19 mg/dL
GLUCOSE [1]: 131.67 mg/dL
LACTATE DEHYDROGENASE [1]: 643.67 u/L
LIPASE [1]: 9.67 u/L
PHOSPHORUS [1]: 11.7 mg/dL
POTASSIUM [1]: 6.1 MEQ/L
SODIUM [1]: 144.23 MEQ/L
TOTAL BILIRUBIN [1]: 0.23 mg/dL
TOTAL PROTEIN [1]: 6.13 G/DL
URIC ACID [1]: 1.5 mg/dL
ABSOLUTE BASOPHIL [2]: 0 CELLS/uL
ABSOLUTE EOSINOPHIL [2]: 93.33 CELLS/uL
ABSOLUTE LYMPHOCYTE [2]: 7483.33 CELLS/uL
ABSOLUTE MONOCYTE [2]: 100 CELLS/uL
ABSOLUTE SEGMENTED NEUTROPHIL [2]: 856.67 CELLS/uL
BASOPHIL [2]: 0%
EOSINOPHIL [2]: 1%
ERYTHROCYTE COUNT [2]: 5.18 x10E6/uL
HEMATOCRIT [2]: 33.2%
HEMOGLOBIN [2]: 13 G/DL
LEUKOCYTE COUNT [2]: 8.53 x10E3/uL
LYMPHOCYTE [2]: 87.33%
MEAN CORPUSCULAR HEMOGLOBIN [2]: 25.1 pg
MEAN CORPUSCULAR HEMOGLOBIN CONCENTRATION [2]: 39.17 G/DL
MONOCYTE [2]: 1.33%
NEUTROPHIL [2]: 10.33%
NUCLEATED RED BLOOD CELLS [2]: 0 /100WBC
PLATELET COUNT [2]: 1248.33 x10E3/uL
ALANINE AMINOTRANSFERASE [2]: 55.33 u/L
ALBUMIN [2]: 3.8 G/DL
ALKALINE PHOSPHATASE [2]: 290.33 u/L
ASPARTATE AMINOTRANSFERASE [2]: 131.67 u/L
BLOOD UREA NITROGEN [2]: 18.33 mg/dL
CARBON DIOXIDE [2]: 24 mmol/L
CHLORIDE [2]: 105 MEQ/L
CHOLESTEROL [2]: 68.33 mg/dL
CREATINE PHOSPHOKINASE [2]: 1224.33 u/L
CREATININE [2]: 0.19 mg/dL
GLUCOSE [2]: 153 mg/dL
LACTATE DEHYDROGENASE [2]: 177.67 u/L
LIPASE [2]: 9.67 u/L
PHOSPHORUS [2]: 10.87 mg/dL
POTASSIUM [2]: 5.14 MEQ/L
SODIUM [2]: 144.9 MEQ/L
TOTAL BILIRUBIN [2]: 0.17 mg/dL
TOTAL PROTEIN [2]: 5.37 G/DL
URIC ACID [2]: 1.17 mg/dL
ABSOLUTE BASOPHIL [3]: 0 CELLS/uL
ABSOLUTE EOSINOPHIL [3]: 0 CELLS/uL
ABSOLUTE LYMPHOCYTE [3]: 9169.67 CELLS/uL
ABSOLUTE MONOCYTE [3]: 0 CELLS/uL
ABSOLUTE SEGMENTED NEUTROPHIL [3]: 630.33 CELLS/uL
BASOPHIL [3]: 0%
EOSINOPHIL [3]: 0%
ERYTHROCYTE COUNT [3]: 5.58 x10E6/uL
HEMATOCRIT [3]: 34%
HEMOGLOBIN [3]: 13.3 G/DL
LEUKOCYTE COUNT [3]: 9.8 x10E3/uL
LYMPHOCYTE [3]: 93.33%
MEAN CORPUSCULAR HEMOGLOBIN [3]: 23.83 pg
MEAN CORPUSCULAR HEMOGLOBIN CONCENTRATION [3]: 39.13 G/DL
MONOCYTE [3]: 0%
NEUTROPHIL [3]: 6.67%
NUCLEATED RED BLOOD CELLS [3]: 0 /100WBC
PLATELET COUNT [3]: 1205.67 x10E3/uL
ALANINE AMINOTRANSFERASE [3]: 63.33 u/L
ALBUMIN [3]: 3.8 G/DL
ALKALINE PHOSPHATASE [3]: 286.33 u/L
ASPARTATE AMINOTRANSFERASE [3]: 139.33 u/L
BLOOD UREA NITROGEN [3]: 16 mg/dL
CARBON DIOXIDE [3]: 21.33 mmol/L
CHLORIDE [3]: 104.67 MEQ/L
CHOLESTEROL [3]: 64.67 mg/dL
CREATINE PHOSPHOKINASE [3]: 1202.67 u/L
CREATININE [3]: 0.19 mg/dL
GLUCOSE [3]: 152 mg/dL
LACTATE DEHYDROGENASE [3]: 204 u/L
LIPASE [3]: 9 u/L
PHOSPHORUS [3]: 10.4 mg/dL
POTASSIUM [3]: 5.65 MEQ/L
SODIUM [3]: 146.07 MEQ/L
TOTAL BILIRUBIN [3]: 0.2 mg/dL
TOTAL PROTEIN [3]: 5.3 G/DL
URIC ACID [3]: 0.73 mg/dL
